One data set deals with T1, rh beta tryptase (Homo sapiens, UniProt Q15661).
T1 construct: purchased Promega
Kind of data set: tryptase inhibition test (cleavage of N-p-tosyl-Gly-Pro-Lys-para-nitroaniline, p-nitroaniline measured at 405 nm). Format: biochemical. To be noted: Tris HCl buffer pH 7.4 with calcium and heparin, 37° C., substrate 0.6 mM, 5 minutes pre-incubation, 5 minutes incubation. How it is done: The compounds according to the invention are characterised by their tryptase-inhibiting activity. This ability to inhibit tryptase was investigated using the test described below.
The measurement is carried out in Tris HCl buffer (100 mM), which additionally contains calcium (5 mM) and heparin ([…]), at pH 7.4. The standard used is rh beta tryptase which may be obtained commercially from Promega, for example. The substrate used is N-p-tosyl-Gly-Pro-Lys-para-nitroaniline in a concentration of 0.6 mM. The substrate is digested with tryptase to form p-nitroaniline which can be measured at 405 nm. Usually, an incubation period of 5 minutes and an incubation temperature of 37° C. are chosen. The enzyme activity used is 0.91 U/ml. The measurements are carried out in an Autoanalyser (Cobas Bio) made by Hofmann LaRoche. The potential inhibitory substances are used in concentrations of 10 μM in the screening, the inhibition of the tryptase being given in percent. The IC50 is determined at over 70% inhibition (concentration at which 50% of the enzyme activity is inhibited). After 5 minutes pre-incubation of the potential inhibitory substances, the substrate is added to start the reaction, the formation of p-nitroaniline being taken as a measurement of the enzyme activity after 5 minutes, after testing the linearity.
The data obtained after carrying out the tests described above (IC50 values) can be found in Table 2.

pIC50: −log10 of the molar value. Structures can show the parent of a compound that is named as a salt.

T1 sequence (Q15661 31-275): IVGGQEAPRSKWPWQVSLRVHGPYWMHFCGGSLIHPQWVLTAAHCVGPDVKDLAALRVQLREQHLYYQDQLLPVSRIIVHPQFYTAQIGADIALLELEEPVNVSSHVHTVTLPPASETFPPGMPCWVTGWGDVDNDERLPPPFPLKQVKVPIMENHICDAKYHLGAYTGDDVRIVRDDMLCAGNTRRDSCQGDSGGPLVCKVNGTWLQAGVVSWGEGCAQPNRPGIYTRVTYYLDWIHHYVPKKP

The compound `CCN(CC)CCN(c1ccc2c(c1)nc(CCc1ccc(C(=N)N)cc1)n2C)S(=O)(=O)c1ccc(C(=O)O)cc1` (as salt: fumarate) [Example 14, N-{2-[2-(4-amidinophenyl)-ethyl]-1-methyl-benzimidazol-5-yl}-N-diethylaminoethyl-[4-carboxy-benzenesulphonamide]-fumarate] had a melting point of 200 to 204 °C.
The same measure, in the same setting: next, `CCN(CC)CCN(c1ccc2c(c1)nc(CCc1ccc(C(=N)N)cc1)n2C)S(=O)(=O)c1ccc(N)cc1` (as salt: hydrochloride) [Example 8, N-{2-[2-(4-amidinophenyl)-ethyl]-1-methyl-benzimidazol-5-yl}-N-diethylaminoethyl-(4-amino-benzenesulphonamide)-tetrahydrochloride]: 190 to 205 °C; `CCN(CC)CCN(c1ccc2c(c1)nc(CCc1ccc(C(=N)N)cc1)n2C)S(=O)(=O)c1ccc(OC)cc1` (as salt: hydrochloride) [Example 12, N-{2-[2-(4-amidinophenyl)-ethyl]-1-methyl-benzimidazol-5-yl}-N-diethylaminoethyl-(4-methoxy-benzenesulphonamide)-trihydrochloride]: 190 to 200 °C.
`CCOC(=O)c1ccc(S(=O)(=O)N(CCN(CC)CC)c2ccc3c(c2)nc(CCc2ccc(C(=N)N)cc2)n3C)cc1` [Example 1, N-{2-[2-(4-amidinophenyl)-ethyl]-1-methyl-benzimidazol-5-yl}-N-diethylaminoethyl-(4-ethoxycarbonyl-benzenesulphonamide)-hydrochloride]: the negative-log IC50 (pIC50) at rh beta tryptase is 8.01.
As for `CCN(CC)CCN(c1ccc2c(c1)nc(CCc1ccc(C(=N)N)cc1)n2C)S(=O)(=O)c1cccc(Br)c1` [Example 3, N-{2-[2-(4-amidinophenyl)-ethyl]-1-methyl-benzimidazol-5-yl}-N-diethylaminoethyl-(3-bromo-benzenesulphonamide)-hydrochloride], the negative logarithm of the IC50 (pIC50) on rh beta tryptase was 7.77.
On to `CCN(CC)CCN(c1ccc2c(c1)nc(CCc1ccc(C(=N)N)cc1)n2C)S(=O)(=O)c1ccc([N+](=O)[O-])cc1` [Example 4, N-{2-[2-(4-amidinophenyl)-ethyl]-1-methyl-benzimidazol-5-yl}-N-diethylaminoethyl-(4-nitro-benzenesulphonamide)-hydrochloride], for which the pIC50 at rh beta tryptase is 7.64.
For `CCN(CC)CCN(c1ccc2c(c1)nc(CCc1ccc(C(=N)N)cc1)n2C)S(=O)(=O)c1cccc(OC)c1` [Example 5, N-{2-[2-(4-amidinophenyl)-ethyl]-1-methyl-benzimidazol-5-yl}-N-diethylaminoethyl-(3-methoxy-benzenesulphonamide)-hydrochloride], the pIC50 at rh beta tryptase is 7.62.
In the case of `CCN(CC)CCN(c1ccc2c(c1)nc(CCc1ccc(C(=N)N)cc1)n2C)S(=O)(=O)c1cccc(C)c1` [Example 6, N-{2-[2-(4-amidinophenyl)-ethyl]-1-methyl-benzimidazol-5-yl}-N-diethylaminoethyl-(3-methyl-benzenesulphonamide)-hydrochloride], at rh beta tryptase, the pIC50 was 7.52.
On the same count and under the same terms, the result for `CCN(CC)CCN(c1ccc2c(c1)nc(CCc1ccc(C(=N)N)cc1)n2C)S(=O)(=O)c1cccc(Cl)c1` [Example 7, N-{2-[2-(4-amidinophenyl)-ethyl]-1-methyl-benzimidazol-5-yl}-N-diethylaminoethyl-(3-chloro-benzenesulphonamide)-hydrochloride] reads 7.52; that for `CCN(CC)CCN(c1ccc2c(c1)nc(CCc1ccc(C(=N)N)cc1)n2C)S(=O)(=O)c1ccc(N)cc1` [Example 8, N-{2-[2-(4-amidinophenyl)-ethyl]-1-methyl-benzimidazol-5-yl}-N-diethylaminoethyl-(4-amino-benzenesulphonamide)-tetrahydrochloride], 7.47; that for `CCN(CC)CCN(c1ccc2c(c1)nc(CCc1ccc(C(=N)N)cc1)n2C)S(=O)(=O)c1ccc(NC(C)=O)cc1` [Example 9, N-{2-[2-(4-amidinophenyl)-ethyl]-1-methyl-benzimidazol-5-yl}-N-diethylaminoethyl-(4-acetylamino-benzenesulphonamide)], 7.36.
`CCN(CC)CCN(c1ccc2c(c1)nc(CCc1ccc(C(=N)N)cc1)n2C)S(=O)(=O)c1cc(C(F)(F)F)cc(C(F)(F)F)c1` [Example 16, N-{2-[2-(4-amidinophenyl)-ethyl]-1-methyl-benzimidazol-5-yl}-N-2-diethylaminoethyl-[3,5-di-(trifluoromethyl)-benzenesulphonamide] dihydrochloride]: the negative logarithm of the IC50 (pIC50) on rh beta tryptase is 7.60.
The same measure, in the same setting: the result for `CCN(CC)CCN(c1ccc2c(c1)nc(CCc1ccc(C(=N)N)cc1)n2C)S(=O)(=O)c1ccc2cc(O)ccc2c1` [Example 17, N-{2-[2-(4-amidinophenyl)-ethyl]-1-methyl-benzimidazol-5-yl}-N-2-diethylaminoethyl-(6-hydroxy-naphth-2-ylsulphonamide) dihydrochloride] reads 6.55.
On the same count and under the same terms, next, `CCN(CC)CCN(c1ccc2c(c1)nc(CCc1ccc(C(=N)N)cc1)n2C)S(=O)(=O)c1cccc(C(F)(F)F)c1` [Example 18, N-{2-[2-(4-amidinophenyl)-ethyl]-1-methyl-benzimidazol-5-yl}-N-2-diethylaminoethyl-(3-trifluoromethyl-benzenesulphonamide) dihydrochloride]: 7.37.
For the compound `CCN(CC)CCN(c1ccc2c(c1)nc(CCc1ccc(C(=N)N)cc1)n2C)S(=O)(=O)c1cccc(C(C)(C)c2ccccc2)c1` [Example 19, N-{2-[2-(4-amidinophenyl)-ethyl]-1-methyl-benzimidazol-5-yl}-N-2-diethylaminoethyl-[3-(1-methyl-1-phenyl-ethyl)-benzenesulphonamide] dihydrochloride], the pIC50 at rh beta tryptase was 8.06.
Still for that read-out and setting: the result for `CN(C)c1cccc2c(S(=O)(=O)N(CCN)c3ccc4c(c3)nc(CCc3ccc(C(=N)N)cc3)n4C)cccc12` [Example 20, N-{2-[2-(4-amidinophenyl)-ethyl]-1-methyl-benzimidazol-5-yl}-N-aminoethyl-(dansylamide) dihydrochloride] reads 7.66.
Same read-out and setting: the result for `CCN(CC)CCN(c1ccc2c(c1)nc(CCc1ccc(C(=N)N)cc1)n2C)S(=O)(=O)c1ccc(C(C)(C)C)cc1` [Example 21, N-{2-[2-(4-amidinophenyl)-ethyl]-1-methyl-benzimidazol-5-yl}-N-diethylaminoethyl-(4-tert-butyl-benzenesulphonamide) dihydrochloride] reads 8.39; that for `CN(C)c1cccc2c(S(=O)(=O)N(Cc3ccccn3)c3ccc4c(c3)nc(CCc3ccc(C(=N)N)cc3)n4C)cccc12` [Example 22, N-{2-[2-(4-amidinophenyl)-ethyl]-1-methyl-benzimidazol-5-yl}-N-pyrid-2-ylmethyl-(dansylamide) dihydrochloride], 7.85.
For the compound `CN(C)c1cccc2c(S(=O)(=O)N(Cc3cccnc3)c3ccc4c(c3)nc(CCc3ccc(C(=N)N)cc3)n4C)cccc12` [Example 23, N-{2-[2-(4-amidinophenyl)-ethyl]-1-methyl-benzimidazol-5-yl}-N-pyrid-3-ylmethyl-(dansylamide) dihydrochloride], the negative logarithm of the IC50 (pIC50) on rh beta tryptase is 7.89.
The same measure, in the same setting: the result for `CCN(CC)CCN(c1ccc2c(c1)nc(CCc1ccc(C(=N)N)cc1)n2C)S(=O)(=O)c1cccc2cccc(Cl)c12` [Example 24, N-{2-[2-(4-amidinophenyl)-ethyl]-1-methyl-benzimidazol-5-yl}-N-diethylaminoethyl-(8-chloronaphth-1-ylsulphonamide) dihydrochloride] reads 7.89.
`CN(C)c1cccc2c(S(=O)(=O)N(Cc3ccncc3)c3ccc4c(c3)nc(CCc3ccc(C(=N)N)cc3)n4C)cccc12` [Example 25, N-{2-[2-(4-amidinophenyl)-ethyl]-1-methyl-benzimidazol-5-yl}-N-pyrid-4-ylmethyl-(dansylamide) dihydrochloride]: on rh beta tryptase, the pIC50 is 7.44.
Still for that read-out and setting: next, `Cn1c(CCc2ccc(C(=N)N)cc2)nc2cc(N(Cc3ccccc3)S(=O)(=O)c3ccc(C(C)(C)C)cc3)ccc21` [Example 26, N-{2-[2-(4-amidinophenyl)-ethyl]-1-methyl-benzimidazol-5-yl}-N-benzyl-(4-tert-butyl-benzenesulphonamide) dihydrochloride]: 8.12; `CCN(CC)CCN(c1ccc2c(c1)nc(CCc1ccc(C(=N)N)cc1)n2C)S(=O)(=O)c1ccc2cc(OC)ccc2c1` [Example 27, N-{2-[2-(4-amidinophenyl)-ethyl]-1-methyl-benzimidazol-5-yl}-N-diethylaminoethyl-(6-methoxy-naphth-2-ylsulphonamide) diacetate]: 7.76.
For the compound `CCN(CC)CCN(c1ccc2c(c1)nc(CCc1ccc(C(=N)N)cc1)n2C)S(=O)(=O)c1cccc([N+](=O)[O-])c1` [Example 28, N-{2-[2-(4-amidinophenyl)-ethyl]-1-methyl-benzimidazol-5-yl}-N-2-diethylaminoethyl-(3-nitro-benzenesulphonamide) dihydrochloride], the pIC50 on rh beta tryptase is 7.36.
Still for that read-out and setting: the result for `CCN(CC)CCN(c1ccc2c(c1)nc(CCc1ccc(C(=N)N)cc1)n2C)S(=O)(=O)c1cccc(N)c1` [Example 29, N-{2-[2-(4-amidinophenyl)-ethyl]-1-methyl-benzimidazol-5-yl}-N-2-diethylaminoethyl-(3-amino-benzenesulphonamide) dihydrochloride] reads 7.28.

In general, melting point refers to the temperature of the solid-liquid transition. As a reminder, the pIC50 is the negative decadic logarithm of the IC50, by convention in mol/L.

The values are drawn from patent US6413990B1, “Arylsulphonamide-substituted benzimidazoles having tryptase-inhibiting activity” (Boehringer Ingelheim Pharma KG, priority 1999, dated 2002).
